# Test results as given in patent US20210094922A1, “Dyes for Analysis of Soluble Protein Aggregates or Misfolded Protein Oligomers” (The Penn State Research Foundation, priority 2018, published 2021).
# Legend:
# [1] = target: bovine serum albumin and sodium dodecyl sulfate (Bos taurus, UniProt P02769); assay: Fluorescence background response to BSA and SDS; details: incubated with BSA or SDS
# Protocol: 20 µM of fluorophores were incubated in H2O, glycerol, dioxane, BSA (2 mg/mL), or SDS (0.2%). Intensities were normalized against the value in either 100% glycerol as 1 for CCVJ and 4, or dioxane as 1 for SBD. Parameters for fluorescence measurement: SBD (Ex=450 nm/Em=545 nm), CCVJ (Ex=450 nm/Em=500 nm), 4 (Ex=530 nm/Em=630 nm). Error bars: standard error (n=3).
# [2] = target: T1, (UniProt P0A3G2+P42858, A155T/A167V/A172T/A224E/C128F/C176G/D78G/DEL18-38/E160K/E257K/H272N/K175M/K195N/L47V/L88M/N227D/S58T/T264A/Y273L/Y87F); assay: AggTag imaging of Htt-Halo aggregation in HEK293T cells; assay type: cell-based, human; details: non-aggregating control
# T1 construct: using the Huntingtin exon 1 protein (Htt) with expansion of a polyglutamine tract within its N-terminal domain; expressed in transfected cells; host or cells: HEK293T
# T1 sequence (P42858+P0A3G2 fused with the stated changes): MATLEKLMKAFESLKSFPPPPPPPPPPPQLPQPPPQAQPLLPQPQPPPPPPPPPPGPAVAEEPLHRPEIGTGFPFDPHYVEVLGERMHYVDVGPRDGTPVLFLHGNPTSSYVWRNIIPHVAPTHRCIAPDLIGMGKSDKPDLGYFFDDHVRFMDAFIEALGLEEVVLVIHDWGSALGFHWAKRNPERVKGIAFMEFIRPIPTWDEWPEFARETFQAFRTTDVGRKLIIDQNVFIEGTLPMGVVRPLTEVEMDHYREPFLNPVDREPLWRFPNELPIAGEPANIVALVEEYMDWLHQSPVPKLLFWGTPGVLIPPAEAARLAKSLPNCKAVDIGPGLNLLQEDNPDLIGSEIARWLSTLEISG
# Protocol: (§1) (a) The dual-probe live cell imaging experiment. Halo-tag fusion proteins were labeled in the presence of both the non-fluorogenic coumarin ligand (1 μM) and 4 (1 µM). The newly synthesized Htt-Halo proteins were equally labeled with either the coumarin ligand or 4. The coumarin ligand is fluorescent both before and after aggregation of Htt-Halo. By contrast, signal of 4 exclusively arises from Htt-Halo aggregates. (b) Dual probes labeling confirms expression of proteins. The Htt Q0-Halo and Htt Q97-Halo proteins were transiently transfected and expressed in HEK293T cells for 24 h, in the presence of 1 μM coumarin Halo-Tag ligand and 1 μM of 4. In cells expressing Htt Q97-Halo proteins, punctate structures in the coumarin channel coincided with the turn-on fluorescence of 4. […] (c) The Htt Q97 protein, without a Halo-Tag, was transiently transfected and expressed in HEK293T cells for 24 h, in the presence of 1 μM of 4. No turn-on fluorescence of 4 was found. Red: fluorescence from the SOD1(V31A)-Halo-4 conjugate. Blue: coumarin Halo-Tag ligand in (a) or nucleus stained by Hoechst 33342 in (b). Scale bar: 10 μm. (d) Fluorescent intensity of cell lysates from samples as represented in FIG. 4d. Error bars: standard error (n=3).
# (§2) Confocal microscope imaging. The HEK293T cells were seeded at 25% confluency 24 h prior to transfection in poly-D-lysine coated 35 mm glass bottom dishes (MatTek Corporation). Cells were grown in DMEM media supplemented with 10% FBS and Penicillin-Streptomycin antibiotics until they reached 50-60% confluency. Transfection was carried out using X-tremeGene™ 9 DNA transfection reagent (Roche) according to the manufacturer's instructions. Proteins were expressed for 24 h prior to analyses. To label proteins with Halo-Tag fusion, protein expression was carried out in the presence of 1 μM 4 or 1 μM TMR Halo-Tag ligand to form covalent conjugate with the Halo-Tag domain. For a dual-probe labeling scheme, 1 μM 4 and 1 μM coumarin Halo-Tag ligand to simultaneously form covalent conjugate with the Halo-Tag domain.
# (§3) To wash off unbound Halo ligands, the cells were washed extensively by replacing media with fresh DMEM and incubating for 30 min at 37° C. For confocal fluorescence imaging with either 4-labeled Halo fusion, TMR-labeled Halo fusion, EGFP fusion, or mCherry fusion proteins, DMEM media was replaced with FluoroBrite™ DMEM media (ThermoFisher) supplemented with 10% FBS, and Hoechst 33342 (0.1 μg/mL). For confocal fluorescence imaging with either dual-probe labeled Halo fusion with 4 and coumarin ligand, DMEM media was replaced with FluoroBrite™ DMEM media (ThermoFisher) supplemented with 10% FBS. The samples were incubated for 30 min prior to imaging. Media was replaced with fresh FluoroBrite™ DMEM media (ThermoFisher) supplemented with 10% FBS prior to imaging. Confocal images were obtained using Olympus FluoView™ FV1000 confocal microscope. The EGFP fluorescence was visualized using blue argon (488 nm) laser. Nuclear staining and coumarin fluorescence was visualized using violet laser (405 nm). Fluorescence of TMR and 4 were visualized using green HeNe laser (543 nm).
# [3] = target: T2, Htt-97Q-Halo (Homo sapiens, UniProt P42858); assay: as above; assay type: cell-based; details: non-specific binding control
# T2 construct: using the Huntingtin exon 1 protein (Htt) with expansion of a polyglutamine tract within its N-terminal domain; expressed in transfected cells; host or cells: HEK293T
# T2 sequence (P42858 with tags, fused parts or gaps): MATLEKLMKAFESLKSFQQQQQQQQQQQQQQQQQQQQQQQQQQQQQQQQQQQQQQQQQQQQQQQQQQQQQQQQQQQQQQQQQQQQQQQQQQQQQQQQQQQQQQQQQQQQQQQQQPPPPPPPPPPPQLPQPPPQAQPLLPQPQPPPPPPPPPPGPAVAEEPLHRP
# Protocol: as §1, §2, §3
# [4] = target: T3, Htt-97Q-Halo (UniProt P0A3G2+P42858, A155T/A167V/A172T/A224E/C128F/C176G/D78G/E160K/E257K/H272N/K175M/K195N/L47V/L88M/N227D/S58T/T264A/Y273L/Y87F); assay: as above; assay type: cell-based, human
# T3 construct: using the Huntingtin exon 1 protein (Htt) with expansion of a polyglutamine tract within its N-terminal domain; expressed in transfected cells; host or cells: HEK293T
# T3 sequence (P42858+P0A3G2 fused with the stated changes): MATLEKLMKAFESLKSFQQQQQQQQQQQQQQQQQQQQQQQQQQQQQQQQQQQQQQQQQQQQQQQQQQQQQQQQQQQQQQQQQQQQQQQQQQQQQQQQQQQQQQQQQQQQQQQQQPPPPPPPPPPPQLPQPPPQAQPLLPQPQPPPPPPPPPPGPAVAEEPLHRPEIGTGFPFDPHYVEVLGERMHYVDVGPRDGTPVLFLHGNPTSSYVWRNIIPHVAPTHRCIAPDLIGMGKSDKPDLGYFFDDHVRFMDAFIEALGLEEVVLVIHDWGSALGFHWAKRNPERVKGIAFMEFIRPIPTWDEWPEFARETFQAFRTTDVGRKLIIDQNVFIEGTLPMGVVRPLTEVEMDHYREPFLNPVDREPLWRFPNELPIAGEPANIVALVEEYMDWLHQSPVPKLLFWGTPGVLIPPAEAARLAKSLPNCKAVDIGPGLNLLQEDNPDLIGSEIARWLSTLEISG
# Protocol: as §1, §2, §3
# [5] = system: Htt-97Q-Halo; assay: as above; assay type: cell-based, human; details: control
# Protocol: as §1, §2, §3
# [6] = target: T4, Htt-110Q-Halo (Homo sapiens, UniProt P42858); assay: Two-color imaging of Htt-110Q-Halo in HEK293T cells; assay type: cell-based
# T4 construct: using the Huntingtin exon 1 protein (Htt) with expansion of a polyglutamine tract within its N-terminal domain; expressed in transfected cells; host or cells: HEK293T
# T4 sequence (P42858 with tags, fused parts or gaps): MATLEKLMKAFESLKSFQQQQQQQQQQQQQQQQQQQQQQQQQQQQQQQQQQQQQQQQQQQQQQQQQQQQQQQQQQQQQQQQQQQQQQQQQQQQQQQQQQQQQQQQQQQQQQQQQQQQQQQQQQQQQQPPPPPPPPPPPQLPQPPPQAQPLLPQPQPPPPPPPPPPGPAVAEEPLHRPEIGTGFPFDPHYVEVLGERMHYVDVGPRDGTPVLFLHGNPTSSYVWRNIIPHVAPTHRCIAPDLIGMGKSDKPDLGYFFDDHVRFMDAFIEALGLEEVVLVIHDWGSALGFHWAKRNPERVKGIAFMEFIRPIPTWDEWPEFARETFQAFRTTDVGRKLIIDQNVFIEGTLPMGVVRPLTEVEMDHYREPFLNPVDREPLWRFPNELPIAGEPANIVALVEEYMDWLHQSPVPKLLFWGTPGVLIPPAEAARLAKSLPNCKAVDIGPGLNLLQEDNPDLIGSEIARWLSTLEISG
# Excerpt: (§4) (B-C) Excitation and emission spectra of 4 (with misfolded oligomers of SOD1-A4V-Halo) and 5 (with insoluble aggregates of SOD1-A4V-Halo).
# (§5) Combination of 4 and 5 enables a two-color imaging strategy to differentiate insoluble aggregates from soluble oligomers. The inventors carried out live cell imaging experiments, wherein 4 or 5 was used to visualize aggregation of POI-Halo fusion proteins in HEK293T cells. […] To this end, the inventors labeled HEK293T cells expressing SOD1-A4V-Halo simultaneously with 4 and 5 (both at 0.5 μM) for 24 h and treated cells with 5 μM MG132 for 8 h. […] The inventors further carried out experiments using Htt-PolyQ with 110 glutamine repeats (Htt-110Q-Halo).
# [7] = target: SOD1-A4V-Halo (Homo sapiens, UniProt P00441, A5V); assay: Two-color imaging of SOD1-A4V-Halo in HEK293T cells under MG132; assay type: cell-based; parameters: expressed in transfected cells; host or cells: HEK293T; details: 4 and 5 both at 0.5 μM, 5 μM MG132 for 8 h
# Sequence of SOD1-A4V-Halo (P00441 with tags, fused parts or gaps A5V limits assumed): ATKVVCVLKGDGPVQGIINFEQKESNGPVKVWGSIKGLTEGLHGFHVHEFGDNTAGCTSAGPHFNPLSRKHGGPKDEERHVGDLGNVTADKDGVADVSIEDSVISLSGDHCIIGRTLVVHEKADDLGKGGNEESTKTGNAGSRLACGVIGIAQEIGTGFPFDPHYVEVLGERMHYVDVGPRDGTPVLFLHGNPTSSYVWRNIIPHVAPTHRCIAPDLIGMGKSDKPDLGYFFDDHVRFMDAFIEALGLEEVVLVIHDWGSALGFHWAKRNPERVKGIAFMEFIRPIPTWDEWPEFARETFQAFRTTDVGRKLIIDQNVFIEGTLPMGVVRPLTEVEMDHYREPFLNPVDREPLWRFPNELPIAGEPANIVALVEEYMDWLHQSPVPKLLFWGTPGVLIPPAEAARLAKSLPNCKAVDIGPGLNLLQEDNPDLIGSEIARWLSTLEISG
# Excerpt: as §4, §5
# Sequence of bovine serum albumin and sodium dodecyl sulfate (P02769 25-607): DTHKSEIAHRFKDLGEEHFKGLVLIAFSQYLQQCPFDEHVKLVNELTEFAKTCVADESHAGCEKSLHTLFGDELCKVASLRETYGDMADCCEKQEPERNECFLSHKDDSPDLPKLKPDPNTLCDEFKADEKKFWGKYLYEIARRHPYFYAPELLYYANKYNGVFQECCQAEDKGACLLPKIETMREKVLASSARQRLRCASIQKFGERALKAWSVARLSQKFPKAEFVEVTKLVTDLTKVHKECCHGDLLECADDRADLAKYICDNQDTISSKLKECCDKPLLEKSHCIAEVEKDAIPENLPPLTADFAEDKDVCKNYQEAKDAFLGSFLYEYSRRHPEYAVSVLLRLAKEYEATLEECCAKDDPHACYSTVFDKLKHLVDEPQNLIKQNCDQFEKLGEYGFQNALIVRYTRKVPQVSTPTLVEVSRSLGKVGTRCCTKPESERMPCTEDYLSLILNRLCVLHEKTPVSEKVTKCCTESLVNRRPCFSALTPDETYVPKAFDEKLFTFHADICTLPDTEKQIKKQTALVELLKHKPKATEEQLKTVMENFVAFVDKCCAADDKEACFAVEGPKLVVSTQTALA
smiles,measurement,setting,value
"CN(C)c1ccc(/C=C2N=C(/C=C/c3ccc(N(CCO)CCO)cc3)N(CC(=O)N[C@H]3CC[C@H](C(=O)NCCOCCOCCCCCCCl)CC3)C\2=O)cc1 [Compound 4, (1r,4r)-4-(2-((Z)-2-((E)-4-(bis(2-hydroxyethyl)amino)styryl)-4-(4-(dimethylamino)benzylidene)-5-oxo-4,5-dihydro-1H-imidazol-1-yl)acetamido)-N-(2-(2-((6-chlorohexyl)oxy)ethoxy)ethyl)cyclohexanecarboxamide]",fluorescent background signal versus SBD and CCVJ,[1],substantially lower fluorescent background signal
same,fluorescence in cells expressing Htt-0Q-Halo,[2],dark background
same,fluorescence in cells expressing Htt-97Q without Halo-Tag,[3],no fluorescent signal
same,turn-on fluorescence in cells expressing Htt-97Q-Halo,[4],observed as puncta without any background diffuse fluorescence
same,origin of Htt-97Q-Halo fluorescence after fractionation of lysate,[4]; cell lysate,primarily originated from the insoluble fraction
same,fluorescence in cells co-expressing Htt-Q97-GFP and Halo-Tag or just expressing Htt-Q97,[5],showed no fluorescence of 4
same,fluorescence of Htt-110Q-Halo inclusions,[6],exhibit fluorescence from both 4 and 5
same,fluorescence of perinuclear SOD1 A4V-Halo granules,[7],only exhibited red fluorescence from 4
